# Legend:
# Format in all cases: cell-based, C. elegans
# M1-M2-linker chimera = M1-M2-linker chimera (Caenorhabditis elegans, UniProt G5ECD3+G5EE10); conditions: 5 μM PS, 100 μM GABA
# Description: (§1) Electrophysiology: Plasmids containing wild-type and mutagenized GABAA receptor subunits were linearized and transcribed in vitro using T3 RNA polymerase (mMessage mMachine T3 kit, Ambion, Austin Tex.). UNC-49B mRNA was injected into Xenopus laevis oocytes at 0.5 μg/μl either alone, or in a mixture with 0.5 μg/μl UNC-49C. […] The injection volume ranged between 27.6 nl to 50.6 nl. […] Cells were voltage clamped at −60 mV. All recordings were performed at room temperature.
# (§2) The strategy represents a deletion of UNC-49C material from the carboxy to amino terminal end of the transmembrane portion of the subunit, which is then replaced with UNC-49B sequences.
# QF-R [1] = target: QF-R (Caenorhabditis elegans, UniProt G5ECD3, N259Q/N305R/V261F); conditions: QF-R; at EC50 GABA
# Description: as §1
# (§3) The conserved residues were tested in the UNC-49C M1 domain in a similar way. […] To test the importance of these conserved residues, they were substituted into an UNC-49B subunit with the linker mutation N305R to create the ‘QF-R’ subunit (FIG. 3c).
# QF-R [2] = test system: QF-R
# Description: as §1, §3
# [3] = test system: UNC-49B homomers containing the M1 mutations; experiment: Desensitization in oocytes; conditions: oocytes expressing UNC-49B homomers containing the M1 mutations
# M1-M2 chimera = M1-M2 chimera (Caenorhabditis elegans, UniProt G5ECD3+G5EE10); experiment: Xenopus oocyte two electrode voltage-clamp, GABA-evoked currents; conditions: 5 μM PS, 1000 μM GABA, versus M1-M2-linker chimera
# Description: as §1, §2
# X(I267V) = X(I267V) (Caenorhabditis elegans, UniProt G5ECD3, I262F/I267V/M258L/N259Q/N305R/S264A/T257F/V261F); conditions: at EC50 GABA
# Description: as §1
# X(I265S, Q259N) [4] = conditions: residue 259 reverted to asparagine, versus X(I265S)
# Description: as §1
# XZ chimera = XZ chimera (Caenorhabditis elegans, UniProt G5ECD3, A281S/E280D/I262F/L277I/M258L/N259Q/N305R/S264A/S282A/T257F/V261F); conditions: at EC50 GABA
# Description: as §1
# linker chimera = linker chimera (Caenorhabditis elegans, UniProt G5ECD3, N305R, form not given); conditions: at EC50 GABA
# Description: as §1
# XY chimera = XY chimera (Caenorhabditis elegans, UniProt G5ECD3, I262F/I265S/I267V/I270L/M258L/N259Q/N305R/S264A/T257F/T269V/V261F/V273I); conditions: XY chimera; at EC50 GABA
# Description: as §1
# UNC-49B-PS7 [5] = test system: UNC-49B-PS7
# Description: as §1
# TM chimera = TM chimera (Caenorhabditis elegans, UniProt G5ECD3+G5EE10); conditions: TM chimera homomer; 5 μM PS
# Description: as §1
# X(I270L) = X(I270L) (Caenorhabditis elegans, UniProt G5ECD3, I262F/I270L/M258L/N259Q/N305R/S264A/T257F/V261F); conditions: at EC50 GABA
# Description: as §1
# M1-R = M1-R (Caenorhabditis elegans, UniProt G5ECD3+G5EE10, N305R, form not given); conditions: at EC50 GABA
# Description: as §1
# X(I265S, Q259N) [6] = target: X(I265S, Q259N) (Caenorhabditis elegans, UniProt G5ECD3, I262F/I265S/M258L/N305R/S264A/T257F/V261F); conditions: X(I265S, Q259N); at EC50 GABA
# Description: as §1
# UNC-49B-PS7 [7] = target: UNC-49B-PS7 (Caenorhabditis elegans, UniProt G5ECD3, I262F/I265S/M258L/N259Q/N305R/S264A/T257F); conditions: UNC-49B-PS7; at EC50 GABA
# Description: as §1
# [8] = target: double chimera (M1 + linker) (Caenorhabditis elegans, UniProt G5ECD3+G5EE10); conditions: at EC50 GABA
# Description: as §1
# Y chimera = Y chimera (Caenorhabditis elegans, UniProt G5ECD3, I265S/I267V/I270L/N259Q/N305R/T269V/V261F/V273I); conditions: Y chimera; at EC50 GABA
# Description: as §1
# YZ chimera = YZ chimera (Caenorhabditis elegans, UniProt G5ECD3, A281S/E280D/I265S/I267V/I270L/L277I/N259Q/N305R/S282A/T269V/V261F/V273I); conditions: at EC50 GABA
# Description: as §1
# Sequence of TM chimera (G5EE10 256-448, change not shown): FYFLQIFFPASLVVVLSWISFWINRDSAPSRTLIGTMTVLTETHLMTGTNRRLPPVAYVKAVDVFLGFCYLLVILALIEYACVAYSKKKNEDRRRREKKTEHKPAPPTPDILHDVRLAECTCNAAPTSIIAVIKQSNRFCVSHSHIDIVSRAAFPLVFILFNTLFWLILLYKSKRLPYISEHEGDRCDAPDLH
# Sequence of TM chimera (G5ECD3 23-254, change not shown): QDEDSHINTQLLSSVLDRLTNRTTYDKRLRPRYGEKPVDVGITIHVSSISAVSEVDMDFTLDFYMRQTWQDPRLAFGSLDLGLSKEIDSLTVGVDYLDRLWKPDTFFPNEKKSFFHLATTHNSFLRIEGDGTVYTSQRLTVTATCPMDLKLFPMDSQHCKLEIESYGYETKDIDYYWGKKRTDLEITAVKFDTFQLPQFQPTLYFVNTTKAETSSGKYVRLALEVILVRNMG
# Sequence of X(I270L) (G5ECD3 23-506, stated change not applied): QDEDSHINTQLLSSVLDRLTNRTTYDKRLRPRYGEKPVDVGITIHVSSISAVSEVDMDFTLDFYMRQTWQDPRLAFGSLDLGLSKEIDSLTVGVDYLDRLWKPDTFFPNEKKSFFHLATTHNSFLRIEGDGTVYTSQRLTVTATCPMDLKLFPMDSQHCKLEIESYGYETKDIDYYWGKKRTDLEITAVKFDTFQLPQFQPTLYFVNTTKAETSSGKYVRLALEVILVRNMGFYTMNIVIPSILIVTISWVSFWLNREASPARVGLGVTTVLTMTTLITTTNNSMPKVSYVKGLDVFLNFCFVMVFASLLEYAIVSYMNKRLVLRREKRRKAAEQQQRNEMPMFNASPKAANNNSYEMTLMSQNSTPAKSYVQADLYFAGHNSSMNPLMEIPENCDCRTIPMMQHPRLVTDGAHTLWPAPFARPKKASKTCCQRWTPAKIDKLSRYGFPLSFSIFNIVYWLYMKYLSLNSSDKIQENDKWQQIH
# Sequence of XY chimera (G5ECD3 23-506, stated change not applied): as above
# Sequence of double chimera (M1 + linker) (G5ECD3 23-506, change not shown): as the sequence (G5ECD3 23-506, stated change not applied) above
# Sequence of double chimera (M1 + linker) (G5EE10 entry or part of it, change not shown): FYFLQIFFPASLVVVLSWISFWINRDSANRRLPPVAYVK
# Sequence of X(I267V) (G5ECD3 23-506, stated change not applied): as the sequence (G5ECD3 23-506, stated change not applied) above
# Sequence of X(I265S, Q259N) (Caenorhabditis elegans, UniProt G5ECD3, I262F/I265S/M258L/N305R/S264A/T257F/V261F) (G5ECD3 23-506, stated change not applied): as above
# Sequence of M1-M2 chimera (G5ECD3 23-506, change not shown): as the sequence (G5ECD3 23-506, stated change not applied) above
# Sequence of M1-M2 chimera (G5EE10 256-304, change not shown): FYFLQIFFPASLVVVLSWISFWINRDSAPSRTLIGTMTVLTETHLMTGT
# Sequence of linker chimera (G5ECD3 23-506, stated change not applied): as the sequence (G5ECD3 23-506, stated change not applied) above
# Sequence of YZ chimera (G5ECD3 23-506, stated change not applied): as above
# Sequence of Y chimera (G5ECD3 23-506, stated change not applied): as above
# Sequence of QF-R (Caenorhabditis elegans, UniProt G5ECD3, N259Q/N305R/V261F) (G5ECD3 23-506, stated change not applied): as above
# Sequence of XZ chimera (G5ECD3 23-506, stated change not applied): as above
# Sequence of UNC-49B-PS7 (Caenorhabditis elegans, UniProt G5ECD3, I262F/I265S/M258L/N259Q/N305R/S264A/T257F) (G5ECD3 23-506, stated change not applied): as above
# Sequence of M1-M2-linker chimera (G5ECD3 23-506, change not shown): as the sequence (G5ECD3 23-506, stated change not applied) above
# Sequence of M1-M2-linker chimera (G5EE10 256-315, change not shown): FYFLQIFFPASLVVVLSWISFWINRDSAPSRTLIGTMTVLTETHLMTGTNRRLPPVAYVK
# Sequence of M1-R (G5ECD3 entry or part of it, stated change not applied): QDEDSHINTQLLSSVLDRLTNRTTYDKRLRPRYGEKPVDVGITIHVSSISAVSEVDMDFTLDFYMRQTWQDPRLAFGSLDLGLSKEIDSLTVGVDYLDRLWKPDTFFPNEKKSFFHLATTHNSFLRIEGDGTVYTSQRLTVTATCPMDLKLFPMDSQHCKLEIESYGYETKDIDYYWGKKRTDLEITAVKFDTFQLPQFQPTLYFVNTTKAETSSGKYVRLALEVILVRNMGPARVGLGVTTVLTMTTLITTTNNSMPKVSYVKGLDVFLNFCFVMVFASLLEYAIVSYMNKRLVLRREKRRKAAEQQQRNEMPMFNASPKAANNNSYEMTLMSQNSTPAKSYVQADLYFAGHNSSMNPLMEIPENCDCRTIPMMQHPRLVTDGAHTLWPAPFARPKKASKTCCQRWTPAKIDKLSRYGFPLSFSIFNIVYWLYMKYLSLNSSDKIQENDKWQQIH
# Sequence of M1-R (G5EE10 256-283, stated change not applied): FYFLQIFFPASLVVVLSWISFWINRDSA
substance,measurement,setting,value
pregnenolone sulfate [PS],PS sensitivity,M1-M2-linker chimera,equally sensitive to 5 μM PS as the TM chimera
same,PS Slope coefficient,QF-R [1],1.5 ± 0.5 (n = 6)
same,fold more sensitive to PS than N305R,QF-R [2]; QF-R versus N305R,2.1 fold
same,fold less sensitive to PS than the double chimera,QF-R [2]; QF-R versus double chimera,6.7 fold
same,effect of PS on desensitization,[3],accelerated desensitization
same,PS sensitivity,M1-M2 chimera,significantly less PS sensitive
same,PS Slope coefficient,X(I267V),1.1 ± 0.05
same,fold reduction in PS sensitivity,"X(I265S, Q259N) [4]",2.2 fold
same,PS Slope coefficient,XZ chimera,1.1 ± .06
same,PS Slope coefficient,linker chimera,1.3 ± 0.2 (n = 5)
same,PS Slope coefficient,XY chimera,1.6 ± 0.2
same,fold increase in PS sensitivity,UNC-49B-PS7 [5]; UNC-49B-PS7 versus UNC-49B subunit,58 fold
same,fold difference in PS sensitivity,UNC-49B-PS7 [5]; UNC-49B-PS7 versus UNC-49B/C heteromer,1.4 fold
same,PS inhibition,TM chimera,strongly inhibited
same,PS Slope coefficient,X(I270L),1.5 ± 0.1
same,PS Slope coefficient,M1-R,1.2 ± 0.1 (n = 8)
same,PS Slope coefficient,"X(I265S, Q259N) [6]",0.9 ± 0.0
same,PS Slope coefficient,UNC-49B-PS7 [7],1.0 ± 0.0
same,PS Slope coefficient,[8],1.4 ± 0.1 (n = 4)
same,PS Slope coefficient,Y chimera,10.4 ± 1.3
same,PS Slope coefficient,YZ chimera,3.5 ± 1.6

# Source: US8183001B2 (priority 2006, dated 2012)
